Experimental data as given in US10537541B2, “Treatment of focal segmental glomerular sclerosis (FSGS) using therapeutically effective oral doses of 10-nitro-9(E)-octadec-9-enoic acid” (Complexa, Inc., priority 2015, dated 2020).
pIC50: −log10 of the molar value.

What was measured:
[1] = tested on: obese male subjects; experiment: Multiple ascending dose study in obese males: safety and tolerability; assay type: in vivo, human; settings: for GI adverse events, number (percentage) of subjects / General Disorders adverse events, number (percentage) of subjects / Muscle and CT disorders adverse events, number (percentage) of subjects / Nervous System adverse events, number (percentage) of subjects / Skin and SQ disorders adverse events, number (percentage) of subjects: n = 10
Text: The primary endpoints of this study included safety and tolerability, pharmacokinetics, and biomarkers. The safety and tolerability included physical examinations, adverse event (AE) reporting, vital signs (blood pressure, heart rate, respiratory rate), clinical laboratory values (hematology, biochemistry, and urinalysis) including serum magnesium and creatine phosphokinase (CPK), 12-lead electrocardiograms (ECGs) for safety assessments and QTcF measured on ECGs extracted from cardiac Holter monitoring. The pharmacokinetic measurements included maximum observed plasma drug concentration (Cmax), time to maximum plasma drug concentration (Tmax), terminal phase half-life (t½), area under the plasma drug concentration versus time curve (AUC0-last, AUC0-∞), clearance (CL/F), volume of distribution (Vd/F) and terminal elimination rate constant (λz).
This was a single-center, randomized, double-blind, placebo-controlled study of sequential multiple ascending doses of oral CXA-10 in obese male subjects. Eligible subjects included obese males age 19 to 57 years and BMI 27.0 to 39.5 kg/m^2. CXA-10 and placebo were provided as solutions in hard shell capsules. Three (3) cohorts of subjects were dosed once daily with CXA-10 for 14 days. The doses administered in this study were 25, 150 and 450 mg. Subjects enrolled in the highest dose level (450 mg) were administered 600 mg on day 1 then 450 mg for 13 days. This cohort (cohort 3) was given the option to receive an additional 450 mg dose on day 15 with a high fat (50%) breakfast.
Each cohort of subjects was randomized to receive CXA-10 (10 subjects) or placebo (4 or 5 subjects). Safety, pharmacokinetic (PK) and pharmacodynamic (PD) assessments were evaluated throughout the study. The last study visit occurred on Day 28. All subjects remained in the unit during the treatment period and were discharged approximately 24 hours after the last dose was administered. Food restrictions were incorporated to minimize variability in biomarker evaluation and body weight.
Subjects remained at the unit until discharge on Day 15 after assessments were completed and reviewed. […] They remained in the unit until Day 16 (24 h after last dose on Day 15) before being discharged from the unit. The additional procedures on Day 15 and Day 16 were optional for subjects in cohort 3.
Safety and tolerability was evaluated throughout the study. Continuous Holter monitoring was performed on Days −1 and on Day 14 in all three cohorts. Continuous Holter monitoring could also be performed at highest dose cohort on an additional day between Days 2 and 4. The decision to conduct Holter monitoring and the actual day of the additional monitoring was determined based on emerging data.

[2] = tested on: db/db model; settings: given by infusion; cited from earlier work
[3] = tested on: deoxycorticosterone acetate (DOCA)/salt-induced model of FSGS; experiment: DOCA salt study: RT-PCR analysis of kidney gene expression; assay type: in vivo, mice (129/sv strain); settings: DOCA/salt mice kidney; for Nephrin gene expression / Podocin gene expression: normalized to 18S, fold changes to control group, mean ± SEM; for gene expression of MCP-1, osteopontin, collagen III, fibronectin and PAI-1 (mRNA, qRT-PCR): 4 weeks
Procedure: Induction of model: Male mice (129/sv strain) were purchased from Taconic Labs. The animals were uninephrectomized (Unx) at 6 weeks of age by the vendor and shipped one week after surgery. At 2 weeks post Unx, a DOCA or placebo pellet (21-day release pellets, 50 mg/pellet, Innovative Research of America, Sarasota, Fla.) was implanted s.c. All mice were then placed on a semisynthetic diet which contained a moderate fat content and a low phytoestrogen/anti-oxidant level, which approximates a normal human diet (4). A second DOCA or placebo pellet was implanted three weeks later.
Treatment: Mice were treated with placebo, 10-nitro-9(E)-octadec-9-enoic acid at a dose of 2.5 and 12.5 mg/kg, or enalapril (standard of care) for 4 weeks by oral gavage starting 2 weeks after the first DOCA implantation. One percent NaCl in tap water was given to each group except the sham control group. Body weight was measured weekly, and doses were readjusted based on the current body weight. Urine and blood samples were collected prior to treatment and at week 2 and 4 of treatment. Mice were terminated at week 4. Data is presented as the mean+SEM for the number of animals listed in each group.
RT-PCR Analysis of Gene Expression: A slice of kidney from each mouse was placed in Trizol solution (Invitrogen) immediately after harvesting and stored at −80° C. until analysis. Tissues were homogenized using a bead mill in 0.5 ml of Trizol solution and total RNA was extracted with chloroform (Sigma) and purified using standard RNeasy mini kit (Qiagen), with on column DNase 1 (Qiagen) digestion to avoid non-specific fluorescence emission derived from the recognition of contaminating genomic DNA by the probe, according to manufacturer's recommendation. RNA samples were eluted in 30 μl of nuclease-free water and quantified using a Nanodrop. cDNA was generated from 2 μg of RNA by using Clontech Sprint PowerScript reagents according to manufacturer's protocol. Fluorogenic probes specific for genes assayed in the report were purchased from Applied Biosystems. PCR amplification and analysis of PCR reaction were performed and monitored using an ABI Prism 7900HT Sequence Detection System (TaqMan, Perkin-Elmer Applied Biosystem). Data analysis was carried out by using the Sequence Detection Systems v2.3 program (Applied Biosystems). For each cDNA sample the Ct value of each target sequence was normalized to reference gene (Ribosomal RNA-18S), and shown as fold changes to control group. Statistical analyses for gene expression data was performed using a two-tailed Student's t-test.

[4] = tested on: adriamycin-induced nephropathy model; settings: continually infused at disease onset; cited from earlier work
[5] = target: CYP450 3A4 (Homo sapiens, UniProt P08684); experiment: In vitro CYP450 evaluation; assay type: in vitro ADME
Sequence of CYP450 3A4 (P08684 whole entry): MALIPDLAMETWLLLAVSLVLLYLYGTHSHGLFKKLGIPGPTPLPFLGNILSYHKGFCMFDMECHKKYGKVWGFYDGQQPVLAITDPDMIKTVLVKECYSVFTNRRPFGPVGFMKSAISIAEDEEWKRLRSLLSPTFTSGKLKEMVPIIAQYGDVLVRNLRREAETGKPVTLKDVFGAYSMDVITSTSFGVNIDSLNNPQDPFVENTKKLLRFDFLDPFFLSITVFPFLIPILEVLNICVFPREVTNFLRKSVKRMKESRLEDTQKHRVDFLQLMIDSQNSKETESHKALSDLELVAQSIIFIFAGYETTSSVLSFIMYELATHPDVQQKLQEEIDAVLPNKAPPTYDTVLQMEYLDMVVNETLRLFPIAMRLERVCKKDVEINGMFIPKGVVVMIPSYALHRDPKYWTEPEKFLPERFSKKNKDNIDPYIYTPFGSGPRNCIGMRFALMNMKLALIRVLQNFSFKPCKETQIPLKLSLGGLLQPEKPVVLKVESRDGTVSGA

[6] = Cohort 1, 25 mg once daily 14 days
[7] = Cohort 2, 150 mg once daily 14 days
[8] = Cohort 3, 450 mg once daily (600 mg on day 1)
[9] = obese males, 25-450 mg once daily

pIC50 [5]: < 4.48
SMILES: CCCCCCCC/C(=C\CCCCCCCC(=O)O)[N+](=O)[O-] [CXA-10, 10-nitro-9(E)-octadec-9-enoic acid]
HBG, HCT and RBC concentration during treatment compared to placebo treated subjects ([1]; 450 mg): slight decrease | GI related AEs: subjects with nausea ([1]; Cohort 1 (25 mg)): 1 subject had nausea subjects | GI adverse events, number (percentage) of subjects [1, 6]: 2 (20%) | General Disorders adverse events, number (percentage) of subjects [1, 6]: 1 (10%) | Muscle and CT disorders adverse events, number (percentage) of subjects [1, 6]: 2 (20%) | Nervous System adverse events, number (percentage) of subjects [1, 6]: 0 (0%) | Skin and SQ disorders adverse events, number (percentage) of subjects [1, 6]: 2 (20%) | GI related AEs: subjects with diarrhea ([1]; Cohort 2 (150 mg)): 5 subjects had diarrhea: 1 subject had diarrhea ~2 hr | GI adverse events, number (percentage) of subjects [1, 7]: 5 (50%) | General Disorders adverse events, number (percentage) of subjects [1, 7]: 0 (0%) | Muscle and CT disorders adverse events, number (percentage) of subjects [1, 7]: 0 (0%) | Nervous System adverse events, number (percentage) of subjects [1, 7]: 1 (10%) | Skin and SQ disorders adverse events, number (percentage) of subjects [1, 7]: 0 (0%) | GI related AEs: subjects with diarrhea ([1]; Cohort 3 (450 mg w food)): 3 subjects | GI related AEs: subjects with nausea ([1]; Cohort 3 (450 mg w food)): 1 subjects | GI related AEs: subjects with diarrhea ([1]; Cohort 3 (450 mg)): 9 subjects | GI related AEs: subjects with nausea ([1]; Cohort 3 (450 mg)): 4 subjects | GI adverse events, number (percentage) of subjects [1, 8]: 9 (90%) | General Disorders adverse events, number (percentage) of subjects [1, 8]: 3 (30%) | Muscle and CT disorders adverse events, number (percentage) of subjects [1, 8]: 2 (20%) | Nervous System adverse events, number (percentage) of subjects [1, 8]: 4 (40%) | Skin and SQ disorders adverse events, number (percentage) of subjects [1, 8]: 1 (10%) | CPK (muscle enzyme) or magnesium serum levels [1, 9]: no abnormalities | QTc interval (routine ECG after dosing for 15 days; ECG extraction from continuous 24-hour Holter monitoring) [1, 9]: no prolongation of QTc interval | clinical laboratory, vital signs or ECG evaluations [1, 9]: no clinically significant findings | time to resolution of diarrhea ([1]; obese males, oral once daily): ≤ 4 h | intensity of diarrhea (grade) ([1]; obese males, did not worsen with increasing dose): grade 1 or 2 | podocyte number [2]: increase in podocyte number | Nephrin gene expression ([3]; 2.5 mpk): 1.264 ± 0.0789 | Podocin gene expression ([3]; 2.5 mpk): 1.077 ± 0.123 | Nephrin gene expression ([3]; 12.5 mpk): 1.313 ± 0.15 | Podocin gene expression ([3]; 12.5 mpk): 1.117 ± 0.084 | gene expression of MCP-1, osteopontin, collagen III, fibronectin and PAI-1 (mRNA, qRT-PCR) ([3]; high dose 12.5 mg/kg p.o. QD): neither the high dose 10-nitro-9(E)-octadec-9-enoic acid nor enalapril had an effect | gene expression of MCP-1, osteopontin, collagen III, fibronectin and PAI-1 (mRNA, qRT-PCR) ([3]; low dose 2.5 mg/kg p.o. QD): inhibited these genes | podocyte number [4]: increase in podocyte number
